Results from patent US20050163731A1, “Skin depigmenting compositions comprising adapalene and at least one depigmenting active agent” (GALDERMA RESEARCH & DEVELOPMENT, S.N.C., priority 2002, published 2005).

Tests used:
[1] = tested on: natural pigmentation of the tail of SKH HR2 mice; test: Depigmenting activity on natural pigmentation, tail of non-irradiated SKH HR2 mice (clinical pigmentation score); assay type: in vivo; conditions: non-irradiated SKH HR2 mouse tail, hydroquinone 3%, adapalene 0.1% in acetone, topical, 5 days per week for 8 weeks, score 0 to -4
Description: The depigmenting activity is measured on the natural pigmentation after application of the test product to the tail of non-irradiated animals.
The treatment is carried out for 5 days per week for 8 weeks. […] On the days for irradiation, the treatment is applied after irradiation.
The evaluation is made by different clinical observations: once per week before irradiation, the pigmentation is evaluated by virtue of a score on a scale from 0 to 4. The distribution of the scores is the following: • −0: natural pigmentation • depigmentation scale: scores −1 to −4 • −1: light depigmentation • −2: moderate depigmentation • −3: marked depigmentation • −4: total depigmentation • pigmentation scale: scores 1 to 4 • 1: light pigmentation • 2: moderate pigmentation • 3: marked pigmentation • 4: intense pigmentation

[2] = tested on: UV-induced pigmentation of the tail of SKH HR2 mice; conditions: SKH HR2 mouse tail irradiated with UV-B 90 mJ/cm^2 3 times per week for 8 weeks; hydroquinone 3%, adapalene 0.1% topical; score 1 to 4
Description: The depigmenting activity is measured on the natural pigmentation after application of the test product to the tail of non-irradiated animals. The anti-pigmenting activity is measured by the inhibition of the induction of the UV-induced pigmentation: the test product is applied to the tail of animals irradiated with UV-B. The treatment is carried out for 5 days per week for 8 weeks. […] On the days for irradiation, the treatment is applied after irradiation. The animals are irradiated 3 times per week for 8 weeks (Monday, Wednesday, Friday) at the dose of 90 mJ/cm^2 of UV-B. The evaluation is made by different clinical observations: once per week before irradiation, the pigmentation is evaluated by virtue of a score on a scale from 0 to 4. The distribution of the scores is the following: • −0: natural pigmentation • depigmentation scale: scores −1 to −4 • −1: light depigmentation • −2: moderate depigmentation • −3: marked depigmentation • −4: total depigmentation • pigmentation scale: scores 1 to 4 • 1: light pigmentation • 2: moderate pigmentation • 3: marked pigmentation • 4: intense pigmentation

SMILES	Depigmenting activity (effect on natural pigmentation) [1]	Depigmenting activity (effect on natural pigmentation) ([1]; listed as adapalene)	Anti-pigmenting activity (inhibition of UV-B-induced pigmentation) [2]
COc1ccc(-c2ccc3cc(C(=O)O)ccc3c2)cc1C12CC3CC(CC(C3)C1)C2 [Adapalene, 6-[3-(1-adamantyl)-4-methoxyphenyl]-2-naphthanoic acid]	does not modify the natural pigmentation	no depigmenting activity	
Oc1ccc(O)cc1 [hydroquinone]	statistically significant depigmentation at the end of the study		anti-pigmenting effect at the 6th and at the 7th week (D50) which becomes less marked at the end of the study
